In the oligonucleotide strings, read from the 5' end, every base follows the letter of its sugar. An asterisk marks phosphorothioate; unmarked linkages are phosphodiester. Other units and linkages are bracketed, terminal groups are in braces. A string of capitals states the bases alone. d = 2'-deoxy (DNA)

The first data set relates to human meltrin α RNA. The data set can be described thus: Suppression of human meltrin α expression by antisense compound in RD cell (real time PCR). The following applies: 50 nM; RD cell; corrected by GAPDH. Format: cell-based. The method, then:
First, RD cell (ATCC) was suspended in DMEM containing 10% fetal bovine serum (FBS, SIGMA), and the suspension was inoculated in 6 well culture plate at 2.5×10^5 cells/well/2 mL. After incubating overnight at 37° C. in the presence of 5% CO2, the cells were washed twice with serum-free DMEM, and Opti-MEM medium (GIBCO) was added at 800 μL/well.
Gene transfection reagent Lipofectin (Invitrogen) was diluted with Opti-MEM to 20 μg/mL, and the dilution was allowed to stand at room temperature for 30 minutes. Next, the antisense oligodeoxynucleotide synthesized as described above was heated at 90° C. for 3 minutes, and after quenching on ice, diluted with Opti-MEM to a concentration 10 times higher than the final concentration. Equal amounts of the Lipofectin in Opti-MEM and the antisense oligo DNA in Opti-MEM were mixed, and the mixture was incubated at room temperature for 15 minutes and added to 6 well plate at 200 μL/well.
The culture was incubated at 37° C. for 4 hours in the presence of 5% CO2, and the culture supernatant containing the Lipofectin was removed. The cells were washed twice with serum-free DMEM, and after adding 1 mL/well of Opti-MEM and incubating for 18 hours at 37° C. in the presence of 5% CO2, the cells were subjected to the measurement of the level of expression of meltrin α RNA.
After the washing, RNA was isolated from the cell by using RNA isolation kit (RNeasy Micro Kit, QIAGEN) according to the protocol of the kit, and RNA concentration was determined by measuring absorbance at a wavelength of 260 nm with a spectrophotometer (Nano prop, LMS Co., Ltd.) (1OD=40 μg/mL). After the quantitation, the RNA was prepared to a concentration of 0.1 μg/μL by using DEPC-treated water.
0.35 μg of the isolated RNA, and 3.5 μL of 10× TaqMan buffer, 7.7 μL of 25 mM MgCl2, 7.0 μL of 2.5 mM each dNTP Mix, 1.75 μL of 50 μM Random Hexamers, 0.7 μL of 20 U/μL RNase inhibitor, and 0.9 μL of 50 U/μL MultiScribe Reverse Transcriptase (all purchased from Applied Biosystems) were mixed, and water was added to make up the total volume to 35 μL. This solution was maintained at 25° C. for 10 minutes, at 48° C. for 30 minutes, and at 95° C. for 5 minutes, and reverse transcription was conducted to synthesize cDNA.
A solution in total volume of 20 μL containing 10 μL of TaqMan Universal PCR Master Mix, 0.4 μL of 10 μM TaqMan MGB Probe (sequence 5′FAM-caccgaaggacaatccca-MGB-3′: Applied Biosystems), 0.1 μL of 50 μM Forward primer (sequence ggaagccgccagattcct) for detecting meltrin α, 0.1 μL of 50 μM Reverse primer (sequence […]) for detecting meltrin α (all purchased from Sigma-Genosys), 5 μL of the cDNA solution of (3), and 4.4 μL of water was prepared, and after maintaining the solution at 50° C. for 2 minutes and at 95° C. for 10 minutes, PCR was conducted by repeating 40 cycles of 95° C. for 15 seconds and 60° C. for 1 minute in ABI Prism 7000.
The amount of the human meltrin α RNA was measured by conducting real time PCR by using the plasmid containing the cDNA coding for the human meltrin α for the template to generate the standard curve, and calculating RNA copy number of the meltrin α in each sample. The level of expression of GAPDH was also determined by using a primer and probe set for real time PCR of human GAPDH (Pre-Developed TaqMan Assay Reagents Human GAPDH (20×) (Cat# 4310884E, Applied Biosystems).
The results of the real time PCR of the meltrin α was corrected by the level of expression of the GAPDH to calculate the suppression rate. […]
A general note: In qPCR the cycle at which signal appears reflects the starting amount.
With “H145 + 1: tctggccagaggatctgcag (TCTGGCCAGAGGATCTGCAG; antisense; DNA, all phosphorothioate, methylation of C not given here)”, the “suppression rate of expression, 50 nM” value is “+++ (“+++” when the suppression rate was at least 70%)”.
Same read-out and setting: in the case of “H139 + 10: tgcacgtggggcccggtgga (TGCACGTGGGGCCCGGTGGA; antisense; DNA, all phosphorothioate, methylation of C not given here)” it was “+ (“+” when the suppression rate was at least 30%)”.
Still for that read-out and setting: in the case of “H148 + 10: gggtgccaggcggagcccag (dG*dG*dG*dT*dG*dC*dC*dA*dG*dG*dC*dG*dG*dA*dG*dC*dC*dC*dA*dG; antisense)” it was “++ (“++” when the suppression rate was at least 50%)”; in that of “H136 + 5: ggccgttgaggggtctgctg (GGCCGTTGAGGGGTCTGCTG; antisense; DNA, all phosphorothioate, methylation of C not given here)”, “+ (“+” when the suppression rate was at least 30%)”.
Same read-out and setting: in the case of “H139: gcccggtggaggggaggaag (GCCCGGTGGAGGGGAGGAAG; antisense; DNA, all phosphorothioate, methylation of C not given here)” it was “+ (“+” when the suppression rate was at least 30%)”; in that of “H147: tcctggggtcctggccaagg (dT*dC*dC*dT*dG*dG*dG*dG*dT*dC*dC*dT*dG*dG*dC*dC*dA*dA*dG*dG; antisense)”, “++ (“++” when the suppression rate was at least 50%)”; in that of “H015: cggccttcagtgcagcagct (CGGCCTTCAGTGCAGCAGCT; antisense; DNA, all phosphorothioate, methylation of C not given here)”, “++ (“++” when the suppression rate was at least 50%)”.
As for “H143 + 14: cttctgaggggggtttggct (CTTCTGAGGGGGGTTTGGCT; antisense; DNA, all phosphorothioate, methylation of C not given here)”, the “suppression rate of expression, 50 nM” value was “+ (“+” when the suppression rate was at least 30%)”.
Still for that read-out and setting: in the case of “H144 + 16: ccagaggatctgcaggcaga (CCAGAGGATCTGCAGGCAGA; antisense; DNA, all phosphorothioate, methylation of C not given here)” it was “++ (“++” when the suppression rate was at least 50%)”.
On the same count and under the same terms, in the case of “H139 + 13: aggtgcacgtggggcccggt (AGGTGCACGTGGGGCCCGGT; antisense; DNA, all phosphorothioate, methylation of C not given here)” it was “+ (“+” when the suppression rate was at least 30%)”; in that of “H144 + 8: tctgcaggcagaggcttctg (TCTGCAGGCAGAGGCTTCTG; antisense; DNA, all phosphorothioate, methylation of C not given here)”, “+ (“+” when the suppression rate was at least 30%)”.

The data set is the same for the next values; noted with them: 200 nM; RD cell; corrected by GAPDH.
Turning to “H084: cagggtacaggtggtggcat (dC*dA*dG*dG*dG*dT*dA*dC*dA*dG*dG*dT*dG*dG*dT*dG*dG*dC*dA*dT; antisense)”, the “suppression rate of expression, 200 nM” value is recorded as “++ (“++” when the suppression rate was at least 50%)”.
On the same count and under the same terms, in the case of “H229: aaagaaggctttctcataaa (dA*dA*dA*dG*dA*dA*dG*dG*dC*dT*dT*dT*dC*dT*dC*dA*dT*dA*dA*dA; antisense)” it was “+ (“+” when the suppression rate was at least 30%)”; in that of “H234: acaccgggaaagtgaaatgc (DNA dA*dC*dA*dC*dC*dG*dG*dG*dA*dA*dA*dG*dT*dG*dA*dA*dA*dT*dG*dC; antisense)”, “++ (“++” when the suppression rate was at least 50%)”.
The same measure, in the same setting: in the case of “H012: gccgagcggggccgggcgtc (GCCGAGCGGGGCCGGGCGTC; antisense; DNA, all phosphorothioate, methylation of C not given here)” it was “+++ (“+++” when the suppression rate was at least 70%)”.
The same measure, in the same setting: in the case of “H188: ccccttccaaacatgctcac (dC*dC*dC*dC*dT*dT*dC*dC*dA*dA*dA*dC*dA*dT*dG*dC*dT*dC*dA*dC; antisense)” it was “+ (“+” when the suppression rate was at least 30%)”; in that of “H037: ataagtcccctgagaccaga (ATAAGTCCCCTGAGACCAGA; antisense; DNA, all phosphorothioate, methylation of C not given here)”, “+ (“+” when the suppression rate was at least 30%)”.
For “H023: ggtccccactccgaacagag (GGTCCCCACTCCGAACAGAG; antisense; DNA, all phosphorothioate, methylation of C not given here)”, the “suppression rate of expression, 200 nM” value is “+ (“+” when the suppression rate was at least 30%)”.
Take “H075: cttcctgctgcaactgctga (dC*dT*dT*dC*dC*dT*dG*dC*dT*dG*dC*dA*dA*dC*dT*dG*dC*dT*dG*dA)”: the “suppression rate of expression, 200 nM” value is listed as “+ (“+” when the suppression rate was at least 30%)”.
On the same count and under the same terms, in the case of “H178: ctccctgaaagccaaacaca (dC*dT*dC*dC*dC*dT*dG*dA*dA*dA*dG*dC*dC*dA*dA*dA*dC*dA*dC*dA; antisense)” it was “+ (“+” when the suppression rate was at least 30%)”.
Still for that read-out and setting: in the case of “H036: acacgtgctgagactgactg (ACACGTGCTGAGACTGACTG; antisense; DNA, all phosphorothioate, methylation of C not given here)” it was “++ (“++” when the suppression rate was at least 50%)”.
The same measure, in the same setting: in the case of “H139: gcccggtggaggggaggaag (GCCCGGTGGAGGGGAGGAAG; antisense; DNA, all phosphorothioate, methylation of C not given here)” it was “+++ (“+++” when the suppression rate was at least 70%)”; in that of “H147: tcctggggtcctggccaagg (dT*dC*dC*dT*dG*dG*dG*dG*dT*dC*dC*dT*dG*dG*dC*dC*dA*dA*dG*dG; antisense)”, “+++ (“+++” when the suppression rate was at least 70%)”.
In the case of “H092: gcccatcgtgcaggtacacg (dG*dC*dC*dC*dA*dT*dC*dG*dT*dG*dC*dA*dG*dG*dT*dA*dC*dA*dC*dG; antisense)”, the “suppression rate of expression, 200 nM” value is “++ (“++” when the suppression rate was at least 50%)”.
As for “H015: cggccttcagtgcagcagct (CGGCCTTCAGTGCAGCAGCT; antisense; DNA, all phosphorothioate, methylation of C not given here)”, the “suppression rate of expression, 200 nM” value is on record as “+ (“+” when the suppression rate was at least 30%)”.
Same read-out and setting: in the case of “H181: gccagatttctcccaggtgt (dG*dC*dC*dA*dG*dA*dT*dT*dT*dC*dT*dC*dC*dC*dA*dG*dG*dT*dG*dT; antisense)” it was “++ (“++” when the suppression rate was at least 50%)”; in that of “H189: gccttgagtgacactacaga (dG*dC*dC*dT*dT*dG*dA*dG*dT*dG*dA*dC*dA*dC*dT*dA*dC*dA*dG*dA; antisense)”, “+ (“+” when the suppression rate was at least 30%)”.
On the same count and under the same terms, in the case of “H217: ggaagttgataagcaagttg (dG*dG*dA*dA*dG*dT*dT*dG*dA*dT*dA*dA*dG*dC*dA*dA*dG*dT*dT*dG; antisense)” it was “+++ (“+++” when the suppression rate was at least 70%)”.
Same read-out and setting: in the case of “H091: ttggctgggcagtgagggct (dT*dT*dG*dG*dC*dT*dG*dG*dG*dC*dA*dG*dT*dG*dA*dG*dG*dG*dC*dT; antisense)” it was “++ (“++” when the suppression rate was at least 50%)”; in that of “H032: aatttcgagcgagggagaca (AATTTCGAGCGAGGGAGACA; antisense; DNA, all phosphorothioate, methylation of C not given here)”, “+ (“+” when the suppression rate was at least 30%)”.

The values above are taken from patent US20080292619A1, “Pharmaceutical Composition Containing Meltrin Antagonist” (MOCHIDA PHARMACEUTICAL CO., LTD., priority 2004, published 2008).
